Series [1] concerns the target human hematopoietic synthase (Homo sapiens, UniProt O60760). The experiment in a line: Hematopoietic synthase inhibitory activity (Experiment 1). Format: biochemical. As to conditions: [14C] prostaglandin H2 10 μM, preincubated at 25° C. for 5 minutes, 1 minute reaction; read-out: Concentration of Pharmaceutical Compound Required to Inhibit 50% of Hematopoietic Synthase. On the procedure: Experiment 1 was carried out according to the method of Urade, Y. et al. (J. Biol. Chem. 262, 3820-3825, (1987)). More specifically, the reaction mixture (49 μL); 100 mM Tris-HCl (pH 8.0), 1 mM reduced glutathione, 0.1 mg/mL γ-globulin, and human hematopoietic synthase (quantum sufficient), and a test compound (final concentration: 0.01-100 μM) were preincubated at 25° C. for 5 minutes. In place of the test compound, a DMSO solution (final concentration: 1%) was used in the solvent control group (Control Group). Subsequently, 1 μL of [^14C] prostaglandin H2 (final concentration: 10 μM) was added to start the reaction. One minute after the start of the reaction, 250 μL of a reaction stopper solution (diethylether/methanol/1M citric acid (30/4/1) cooled to −20° C. was added to stop the reaction.
Thereafter, 50 μL of the upper layer portion (organic solvent phase) was applied to a TLC plate and developed at −20° C. for 45 minutes (developer: diethylether/methanol/acetic acid (capacity ratio=90/2/1)). After drying the plate, the plate was exposed to an imaging plate for 1 to 24 hours, and the radioactivity corresponding to prostaglandin D2 was analyzed using an image analyzer (product of FUJIFILM Corporation). The area (%) occupied by the prostaglandin D2 band per lane was calculated, and the concentration of the test compound required to inhibit 50% of the hematopoietic synthase (IC50 value) was calculated by comparison with the Control group in each experiment.

Drawing on patent publication US7951956B2, “Benzoimidazole compound capable of inhibiting prostaglandin D synthetase” (Taiho Pharmaceuticals Co., Ltd., priority 2005, dated 2011), this text covers melting point and IC50 for 33 compounds.

Chain of human hematopoietic synthase (O60760 whole entry): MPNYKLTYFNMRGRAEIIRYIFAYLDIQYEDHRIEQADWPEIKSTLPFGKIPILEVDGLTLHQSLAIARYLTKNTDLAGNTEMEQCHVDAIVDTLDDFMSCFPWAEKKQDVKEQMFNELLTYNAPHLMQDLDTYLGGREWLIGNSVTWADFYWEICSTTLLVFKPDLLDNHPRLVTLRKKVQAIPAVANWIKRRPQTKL

`O=C(c1ccccc1)c1ccc2[nH]c(-c3ccc(P(=O)(O)O)o3)nc2c1` (hydrate or solvate) [Comparative Example 3, 5-Benzophenone-2-(2-phosphono-5-furanyl)benzimidazole dihydrate] registered a melting point of 224 to 229 °C.

Regarding `Cc1coc(C)c1-c1nc2cc(C(=O)c3ccccc3)ccc2[nH]1` [Compound 1, 5-Benzoyl-2-(2,4-dimethylfuran-3-yl)-benzimidazole], the melting point is 203 to 208 °C. Besides, the IC50 in series [1] was found to be 796 nM.

For the compound `Cc1oc(C(N)=O)c(C)c1-c1nc2cc(C(=O)c3ccccc3)ccc2[nH]1` [Compound 2, 4-(5-Benzoylbenzimidazol-2-yl)-3,5-dimethylfuran-2-carboxamide], the melting point was 143 to 146 °C. Further, the IC50 in series [1] was determined as 274 nM.

Turning to `O=C(c1ccccc1)c1ccc2[nH]c(-c3c[nH]c(C(=O)O)c3)nc2c1` [Compound 5, 4-(5-Benzoylbenzimidazol-2-yl)-pyrrole-2-carboxylic acid], the melting point was in the range of 239 to 241 °C. The IC50 in series [1] was determined as 1450 nM.

The compound `O=C(c1ccccc1)c1ccc2[nH]c(-c3c[nH]c(C(=O)N4CCCC4)c3)nc2c1` [Compound 6, ((4-(5-Benzoylbenzimidazol-2-yl)-pyrrol-2-yl)-carbonyl)pyrrolidine] displayed a melting point of 160 to 162 °C. The IC50 in series [1] came out at 1740 nM.

Consider `Cc1c[nH]c(C)c1-c1nc2cc(C(=O)c3ccccc3)ccc2[nH]1` [Compound 7, 2-(2,4-Dimethyl-pyrrol-3-yl)-5-benzoylbenzimidazole], for which the melting point was 207 to 214 °C. In addition, the IC50 in series [1] was determined as 588 nM.

`Cc1[nH]c(C=O)c(C)c1-c1nc2cc(C(=O)c3ccccc3)ccc2[nH]1` [Compound 8, 2-(2-Formyl-3,5-dimethyl-pyrrol-4-yl)-5-benzoylbenzimidazole] came in with a melting point of 253 to 255 °C.

Consider `Cc1[nH]c(/C=C/C#N)c(C)c1-c1nc2cc(C(=O)c3ccccc3)ccc2[nH]1` [Compound 9, 2-(2-Acrylonitrile-3,5-dimethyl-pyrrol-4-yl)-5-benzoylbenzimidazole], for which the melting point was 201 to 203 °C. Further, in series [1], the IC50 came out at 110 nM.

Take `Cc1[nH]c(C(=O)NCCC(=O)O)c(C)c1-c1nc2cc(C(=O)c3ccccc3)ccc2[nH]1` [Compound 21, N-(2-Carboxyethyl)-4-(5-benzoylbenzimidazol-2-yl)-3,5-dimethylpyrrole-2-carboxamide]: the melting point is 256 to 258 °C. Also, the IC50 in series [1] turned out to be 304 nM.

On to `Cc1[nH]c(C(=O)N2CCC(O)CC2)c(C)c1-c1nc2cc(C(=O)c3ccccc3)ccc2[nH]1` [Compound 43, ((4-(5-Benzoylbenzimidazol-2-yl)-3,5-dimethylpyrrol-2-yl)-carbonyl)-4-hydroxypiperidine], for which the IC50 in series [1] was found to be 791 nM.

As for `CCOC(=O)C1CCN(C(=O)c2[nH]c(C)c(-c3nc4cc(C(=O)c5ccccc5)ccc4[nH]3)c2C)CC1` [Compound 44, ((4-(5-Benzoylbenzimidazol-2-yl)-3,5-dimethylpyrrol-2-yl)-carbonyl)-4-ethoxycarbonylpiperidine], in series [1], the IC50 turned out to be 1670 nM.

Regarding `Cc1[nH]c(C(=O)N2CCC(C(=O)O)CC2)c(C)c1-c1nc2cc(C(=O)c3ccccc3)ccc2[nH]1` [Compound 45, ((4-(5-Benzoylbenzimidazol-2-yl)-3,5-dimethylpyrrol-2-yl)-carbonyl)piperidine-4-carboxylic acid], the melting point lay in the range of 267 to 271 °C. Besides, the IC50 in series [1] is 643 nM.

Take `Cc1[nH]c(C(=O)N2CCC(C(=O)N(C)CCN(C)C)CC2)c(C)c1-c1nc2cc(C(=O)c3ccccc3)ccc2[nH]1` [Compound 47, N-Methyl-N-(2-dimethylaminoethyl)-1-((4-(5-benzoylbenzimidazol-2-yl)-3,5-dimethylpyrrol-2-yl)-carbonyl)piperidine-4-carboxamide]: the IC50 in series [1] was determined as 269 nM.

For the compound `Cc1[nH]c(C(=O)N2CCC(C(=O)NCCCN(C)C)CC2)c(C)c1-c1nc2cc(C(=O)c3ccccc3)ccc2[nH]1` [Compound 48, N-(3-Dimethylaminopropyl)-1-((4-(5-benzoylbenzimidazol-2-yl)-3,5-dimethylpyrrol-2-yl)-carbonyl)piperidine-4-carboxamide], the IC50 in series [1] turned out to be 124 nM.

For the compound `COCCCNC(=O)C1CCN(C(=O)c2[nH]c(C)c(-c3nc4cc(C(=O)c5ccccc5)ccc4[nH]3)c2C)CC1` [Compound 49, N-(3-Methoxypropyl)-1-((4-(5-benzoylbenzimidazol-2-yl)-3,5-dimethylpyrrol-2-yl)-carbonyl)piperidine-4-carboxamide], in series [1], the IC50 turned out to be 649 nM.

For `Cc1[nH]c(C(=O)N2CCC(C(=O)NCC3CCCCC3)CC2)c(C)c1-c1nc2cc(C(=O)c3ccccc3)ccc2[nH]1` [Compound 50, N-Cyclohexylmethyl-1-((4-(5-benzoylbenzimidazol-2-yl)-3,5-dimethylpyrrol-2-yl)-carbonyl)piperidine-4-carboxamide], the IC50 in series [1] amounted to 843 nM.

Take `O=C(c1ccccc1)c1ccc2nc(-c3ccc[nH]3)[nH]c2c1` [Compound 51, 5-Benzoyl-2-(pyrrol-2-yl)-benzimidazole]: the melting point was 128 to 133 °C.

For `CN(C)Cc1ccc(-c2nc3cc(C(=O)c4ccccc4)ccc3[nH]2)o1` [Compound 56, 2-(5-Dimethylaminomethyl-furan-2-yl)-5-benzoylbenzimidazole], the IC50 in series [1] turned out to be 4780 nM.

As for `O=C(c1ccccc1)c1ccc2[nH]c(-c3ccc(Br)o3)nc2c1` [Compound 58, 2-(5-Bromo-furan-2-yl)-5-benzoylbenzimidazole], in series [1], the IC50 came out at 2370 nM.

For `O=C(c1ccccc1)c1ccc2[nH]c(-c3ccc(C(=O)N4CCCC4)o3)nc2c1` [Compound 59], in series [1], the IC50 came out at 3560 nM.

As for `NC(=O)c1ccc(-c2nc3cc(C(=O)c4ccccc4)ccc3[nH]2)o1` [Compound 60, 5-(5-Benzoylbenzimidazol-2-yl)-furan-2-carboxamide], in series [1], the IC50 was found to be 4360 nM.

On to `O=C(c1ccccc1)c1ccc2[nH]c(-c3ccc(C(=O)NCc4ccc5c(c4)OCO5)o3)nc2c1` [Compound 62, N-(3,4-Methylenedioxyphenylmethyl)-5-(5-benzoylbenzimidazol-2-yl)-furan-2-carboxamide], for which the IC50 in series [1] came out at 2430 nM.

Turning to `O=C(c1ccccc1)c1ccc2[nH]c(-c3ccc(C(=O)N4CCSC4)o3)nc2c1` [Compound 63], the IC50 in series [1] worked out at 1250 nM.

As to `Cc1[nH]c(C(=O)N(C)C)c(C)c1-c1nc2cc(C(=O)c3ccccc3)ccc2[nH]1` [Compound 64, (N,N-Dimethyl)-4-(5-benzoylbenzimidazol-2-yl)-3,5-dimethylpyrrole-2-carboxamide], the IC50 in series [1] amounted to 377 nM.

On to `Cc1[nH]c(C(=O)N(C)O)c(C)c1-c1nc2cc(C(=O)c3ccccc3)ccc2[nH]1` [Compound 65, (N-Hydroxy-N-methyl)-4-(5-benzoylbenzimidazol-2-yl)-3,5-dimethylpyrrole-2-carboxamide], for which the IC50 in series [1] came out at 124 nM.

With `CNC(=O)c1[nH]c(C)c(-c2nc3cc(C(=O)c4ccccc4)ccc3[nH]2)c1C` [Compound 66, (N-Methyl)-4-(5-benzoylbenzimidazol-2-yl)-3,5-dimethylpyrrole-2-carboxamide], in series [1], the IC50 came out at 77 nM.

With `Cc1[nH]c(C(=O)N2CCOCC2)c(C)c1-c1nc2cc(Oc3ccccc3)ccc2[nH]1` [Compound 71, ((4-(5-Phenoxybenzimidazole-2-yl)-3,5-dimethylpyrrol-2-yl)-2-carbonyl)morpholine], in series [1], the IC50 is 870 nM.

Turning to `Cc1[nH]c(C(=O)NCCc2ccccn2)c(C)c1-c1nc2cc(Oc3ccccc3)ccc2[nH]1` [Compound 72, N-(2-(2-Pyridyl)ethyl)-4-(5-phenoxybenzimidazole-2-yl)-3,5-dimethylpyrrole-2-carboxamide], in series [1], the IC50 is 209 nM.

Turning to `CONC(=O)c1[nH]c(C)c(-c2nc3cc(Oc4ccccc4)ccc3[nH]2)c1C` [Compound 73, N-(Methoxy)-4-(5-phenoxybenzimidazole-2-yl)-3,5-dimethylpyrrole-2-carboxamide], the IC50 in series [1] worked out at 240 nM.

As for `CON(C)C(=O)c1[nH]c(C)c(-c2nc3cc(Oc4ccccc4)ccc3[nH]2)c1C` [Compound 74, (N-Methoxy-N-methyl)-4-(5-phenoxybenzimidazole-2-yl)-3,5-dimethylpyrrole-2-carboxamide], the IC50 in series [1] amounted to 263 nM.

With `Cc1[nH]c(C#N)c(C)c1-c1nc2cc(Oc3ccccc3)ccc2[nH]1` [Compound 75, 2-(2-Cyano-3,5-dimethylpyrrol-4-yl)-5-phenoxybenzimidazole], the IC50 in series [1] turned out to be 218 nM.

Take `Cc1oc(C(N)=O)c(C)c1-c1nc2cc(Oc3ccccc3)ccc2[nH]1` [Compound 76, 4-(5-Phenoxybenzimidazole-2-yl)-3,5-dimethylfuran-2-carboxamide]: in series [1], the IC50 was determined as 109 nM.

For `c1ccc(C(OC2CCN(CCCc3nnn[nH]3)CC2)c2ccccc2)cc1` [HQL-79, 4-benzhydryloxy-1-((3-(1H-tetrazol-5-yl)-propyl))piperidine, reference compound], in series [1], the IC50 was 24400 nM.

One may read the melting point as the temperature of the solid-liquid transition.
